ChEMBL document CHEMBL1201862, “PubChem BioAssay data set” (2004)
Active and inactive are the calls of the source.

Columns and labels:
[1] = test system: Vero; test: viability of Vero cells under compound – cytotoxicity control for flavivirus capping enzyme inhibitors (AID 588742); type: functional; conditions: Chlorocebus sabaeus
[2] = biological target: T1, Nucleotide-binding oligomerization domain-containing protein 1 (Homo sapiens, UniProt Q9Y239); test: blockers of NOD1 pathway activity – revised, SAR follow-up (AID 2333); type: functional
T1 sequence (Q9Y239 whole entry): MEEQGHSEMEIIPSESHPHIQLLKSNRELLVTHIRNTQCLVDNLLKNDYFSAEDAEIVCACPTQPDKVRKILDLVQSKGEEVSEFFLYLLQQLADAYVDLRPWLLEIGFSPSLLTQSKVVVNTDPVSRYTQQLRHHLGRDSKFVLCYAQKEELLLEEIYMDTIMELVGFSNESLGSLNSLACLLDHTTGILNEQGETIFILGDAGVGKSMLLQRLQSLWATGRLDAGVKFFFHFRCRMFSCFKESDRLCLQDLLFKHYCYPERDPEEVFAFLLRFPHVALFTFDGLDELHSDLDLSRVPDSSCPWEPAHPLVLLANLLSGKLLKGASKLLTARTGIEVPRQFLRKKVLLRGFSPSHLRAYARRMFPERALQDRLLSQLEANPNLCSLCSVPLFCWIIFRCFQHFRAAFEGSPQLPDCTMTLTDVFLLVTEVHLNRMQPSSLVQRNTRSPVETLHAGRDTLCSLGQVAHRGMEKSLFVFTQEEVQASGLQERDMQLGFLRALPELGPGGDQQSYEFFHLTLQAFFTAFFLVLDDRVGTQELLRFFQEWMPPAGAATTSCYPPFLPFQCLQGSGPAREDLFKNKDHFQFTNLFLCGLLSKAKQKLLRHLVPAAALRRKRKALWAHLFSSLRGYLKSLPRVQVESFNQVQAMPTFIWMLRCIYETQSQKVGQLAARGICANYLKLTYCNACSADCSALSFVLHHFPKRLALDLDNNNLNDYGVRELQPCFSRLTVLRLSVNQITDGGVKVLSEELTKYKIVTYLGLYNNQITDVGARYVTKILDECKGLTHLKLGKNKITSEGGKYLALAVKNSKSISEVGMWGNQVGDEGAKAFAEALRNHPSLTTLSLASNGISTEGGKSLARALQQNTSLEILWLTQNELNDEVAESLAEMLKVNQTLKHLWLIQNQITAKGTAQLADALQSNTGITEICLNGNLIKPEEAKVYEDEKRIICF

[3] = biological target: Tumor necrosis factor (Homo sapiens, UniProt P01375); test: analog potency on TNFa NF-kB signaling – cell-based, revised, SAR follow-up (AID 2337); type: functional
Chain of Tumor necrosis factor (P01375 whole entry): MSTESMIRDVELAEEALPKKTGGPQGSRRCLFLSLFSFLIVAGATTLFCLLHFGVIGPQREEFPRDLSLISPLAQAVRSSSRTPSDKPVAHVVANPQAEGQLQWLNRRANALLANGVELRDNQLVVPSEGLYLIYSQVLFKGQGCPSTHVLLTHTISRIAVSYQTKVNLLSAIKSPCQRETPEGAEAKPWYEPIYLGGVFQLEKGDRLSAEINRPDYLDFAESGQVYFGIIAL

[4] = test system: HEK293; test: cells; conditions: Homo sapiens
[5] = non-specific 3'UTR reporter inhibition in Clone20-Shn3RL – cell-based, Renilla luciferase, cherry-picked, counter-screen for Shn3 inhibitor project, dose response (AID 624133); type: functional
[6] = biological target: Heat shock protein HSP 90-alpha (Homo sapiens, UniProt P07900); type: functional, organism-based
[7] = reduction of Shn3 3'UTR-driven luciferase in osteoblasts – cell-based, Clone20 osteoblasts, firefly luciferase, cherry-picked, dose response (AID 624132); type: functional;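 note: firefly luciferase luminescence from reporter carrying the Shn3 3'UTR in osteoblasts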
[8] = biological target: T2, Fatty acid synthase (Homo sapiens, UniProt P49327); test: inhibition of human FAS-TE enzyme activity – biochemical, endpoint fluorescence intensity, uHTS hits, dose response (AID 624327); type: functional;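 note: fluorescence from hydrolysis of an O-methyl fluorescein acyl ester substrate by the enzyme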
T2 sequence (P49327 whole entry): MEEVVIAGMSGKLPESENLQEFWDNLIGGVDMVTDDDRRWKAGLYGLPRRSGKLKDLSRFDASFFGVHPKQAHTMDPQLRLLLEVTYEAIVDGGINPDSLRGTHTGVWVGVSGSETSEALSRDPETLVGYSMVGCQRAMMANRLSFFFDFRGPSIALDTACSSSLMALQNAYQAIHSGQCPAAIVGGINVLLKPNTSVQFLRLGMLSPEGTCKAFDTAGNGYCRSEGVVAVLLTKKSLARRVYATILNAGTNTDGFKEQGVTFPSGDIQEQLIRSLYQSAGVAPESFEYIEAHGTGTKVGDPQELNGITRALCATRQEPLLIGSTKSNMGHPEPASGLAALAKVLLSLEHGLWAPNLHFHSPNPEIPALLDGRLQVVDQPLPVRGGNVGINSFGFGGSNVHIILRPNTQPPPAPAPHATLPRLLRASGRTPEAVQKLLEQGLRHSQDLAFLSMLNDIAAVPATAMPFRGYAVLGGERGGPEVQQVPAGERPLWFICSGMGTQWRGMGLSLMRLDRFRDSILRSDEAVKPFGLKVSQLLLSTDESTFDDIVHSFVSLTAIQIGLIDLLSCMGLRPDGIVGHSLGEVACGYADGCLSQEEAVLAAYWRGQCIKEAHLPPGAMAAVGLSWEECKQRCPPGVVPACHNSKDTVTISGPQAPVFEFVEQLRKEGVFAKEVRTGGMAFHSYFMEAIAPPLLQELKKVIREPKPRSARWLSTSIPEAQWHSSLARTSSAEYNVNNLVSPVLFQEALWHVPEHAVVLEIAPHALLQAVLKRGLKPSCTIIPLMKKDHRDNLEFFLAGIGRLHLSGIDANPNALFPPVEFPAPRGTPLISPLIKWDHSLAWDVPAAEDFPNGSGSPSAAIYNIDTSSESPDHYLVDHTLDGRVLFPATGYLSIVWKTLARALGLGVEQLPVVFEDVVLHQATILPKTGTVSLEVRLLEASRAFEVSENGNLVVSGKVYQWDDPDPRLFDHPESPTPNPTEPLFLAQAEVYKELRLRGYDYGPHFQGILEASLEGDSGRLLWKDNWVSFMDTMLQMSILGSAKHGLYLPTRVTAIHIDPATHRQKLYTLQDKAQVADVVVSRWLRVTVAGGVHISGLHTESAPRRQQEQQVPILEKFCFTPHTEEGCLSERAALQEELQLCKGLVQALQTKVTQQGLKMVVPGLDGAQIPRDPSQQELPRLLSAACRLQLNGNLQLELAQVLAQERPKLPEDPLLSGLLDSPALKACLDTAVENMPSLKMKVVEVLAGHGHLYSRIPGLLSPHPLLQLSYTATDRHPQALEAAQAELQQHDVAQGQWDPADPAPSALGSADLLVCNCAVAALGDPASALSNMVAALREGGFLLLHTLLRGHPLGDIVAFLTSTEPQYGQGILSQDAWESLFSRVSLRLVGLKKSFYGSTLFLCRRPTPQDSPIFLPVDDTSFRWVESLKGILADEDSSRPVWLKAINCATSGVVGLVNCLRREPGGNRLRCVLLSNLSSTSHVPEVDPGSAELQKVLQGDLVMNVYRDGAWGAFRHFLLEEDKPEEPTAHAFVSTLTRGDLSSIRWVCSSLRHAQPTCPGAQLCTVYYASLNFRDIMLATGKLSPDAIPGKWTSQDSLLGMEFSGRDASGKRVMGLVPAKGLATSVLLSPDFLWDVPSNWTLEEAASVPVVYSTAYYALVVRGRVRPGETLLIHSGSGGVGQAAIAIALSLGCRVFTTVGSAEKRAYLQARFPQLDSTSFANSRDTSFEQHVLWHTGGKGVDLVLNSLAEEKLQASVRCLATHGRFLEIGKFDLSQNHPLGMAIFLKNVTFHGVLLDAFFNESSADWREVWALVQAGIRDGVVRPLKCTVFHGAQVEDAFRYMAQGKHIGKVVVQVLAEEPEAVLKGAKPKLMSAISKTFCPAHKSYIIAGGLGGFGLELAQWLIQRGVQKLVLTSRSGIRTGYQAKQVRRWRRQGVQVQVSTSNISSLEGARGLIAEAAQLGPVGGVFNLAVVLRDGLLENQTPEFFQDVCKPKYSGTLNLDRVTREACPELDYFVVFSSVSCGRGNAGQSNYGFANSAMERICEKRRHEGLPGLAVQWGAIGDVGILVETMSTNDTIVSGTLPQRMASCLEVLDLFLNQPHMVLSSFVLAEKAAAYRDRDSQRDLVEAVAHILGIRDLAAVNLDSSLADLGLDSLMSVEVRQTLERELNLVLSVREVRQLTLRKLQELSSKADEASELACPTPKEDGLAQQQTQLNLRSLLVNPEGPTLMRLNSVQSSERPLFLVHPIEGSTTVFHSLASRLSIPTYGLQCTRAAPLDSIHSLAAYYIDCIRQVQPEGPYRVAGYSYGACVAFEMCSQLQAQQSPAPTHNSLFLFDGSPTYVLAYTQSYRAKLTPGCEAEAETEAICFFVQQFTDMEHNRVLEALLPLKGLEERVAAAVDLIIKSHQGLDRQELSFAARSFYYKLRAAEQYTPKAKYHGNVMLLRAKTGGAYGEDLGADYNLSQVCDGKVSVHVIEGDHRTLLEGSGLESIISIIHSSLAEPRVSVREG

[9] = test system: Vero; test: cells; type: functional, cell-based; conditions: Chlorocebus sabaeus
[10] = test system: Vero; test: cells; type: functional; conditions: Chlorocebus sabaeus
[11] = loss of viability in HepG2 cells – cell-based, CellTiter-Glo, cherry-picked, cytotoxicity control for Shn3 inhibitor project, dose response (AID 624134); type: functional
[12] = biological target: T2, Fatty acid synthase; test: inhibition of human FAS-TE enzyme activity – biochemical, kinetic fluorescence intensity, dose response (AID 624326); type: functional;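 note: rate of fluorescence rise from hydrolysis of a fluorogenic O-methyl fluorescein ester substrate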
[13] = test system: HEK293; test: optical interference in Abeta FP readout, dose response, artefact control for IDE activator project, biochemical, fluorescence polarization (AID 588442); type: functional, cell-based; conditions: Homo sapiens
[14] = biological target: T3, Ubiquitin-conjugating enzyme E2 N (Homo sapiens, UniProt P61088); type: functional;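 note: Dose-response confirmation in a TR-FRET assay detecting UBC13-driven polyubiquitin chain formation, inhibition measured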
T3 sequence (P61088 whole entry): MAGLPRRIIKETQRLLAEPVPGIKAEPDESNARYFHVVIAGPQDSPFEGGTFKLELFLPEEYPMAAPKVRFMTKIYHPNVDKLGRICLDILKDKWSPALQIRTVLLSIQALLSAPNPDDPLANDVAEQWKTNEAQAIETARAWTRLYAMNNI

[15] = test system: INS1; test: INS-1E survival protection against cytokine death – cell-based, luminescence, retest, dose response (AID 449756); type: functional; conditions: Rattus norvegicus;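 note: cell death triggered by IL-1 beta plus TNF-alpha plus IFN-gamma mixture; protective hits raise ATP signal compared with cytokine alone wells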
[16] = Luminescence Cell-Based Dose Retest to Confirm Inhibitors of Cancer Stem Cells. [Related pubchem assays (depositor defined):AID2717, AID2721]; type: functional; conditions: Homo sapiens
[17] = biological target: T4, Insulin-degrading enzyme (Homo sapiens, UniProt P14735); test: cellular IDE activation of Abeta substrate cleavage – fluorescence polarization, HEK cells, dose response (AID 588439); type: functional, cell-based
T4 sequence (P14735 whole entry): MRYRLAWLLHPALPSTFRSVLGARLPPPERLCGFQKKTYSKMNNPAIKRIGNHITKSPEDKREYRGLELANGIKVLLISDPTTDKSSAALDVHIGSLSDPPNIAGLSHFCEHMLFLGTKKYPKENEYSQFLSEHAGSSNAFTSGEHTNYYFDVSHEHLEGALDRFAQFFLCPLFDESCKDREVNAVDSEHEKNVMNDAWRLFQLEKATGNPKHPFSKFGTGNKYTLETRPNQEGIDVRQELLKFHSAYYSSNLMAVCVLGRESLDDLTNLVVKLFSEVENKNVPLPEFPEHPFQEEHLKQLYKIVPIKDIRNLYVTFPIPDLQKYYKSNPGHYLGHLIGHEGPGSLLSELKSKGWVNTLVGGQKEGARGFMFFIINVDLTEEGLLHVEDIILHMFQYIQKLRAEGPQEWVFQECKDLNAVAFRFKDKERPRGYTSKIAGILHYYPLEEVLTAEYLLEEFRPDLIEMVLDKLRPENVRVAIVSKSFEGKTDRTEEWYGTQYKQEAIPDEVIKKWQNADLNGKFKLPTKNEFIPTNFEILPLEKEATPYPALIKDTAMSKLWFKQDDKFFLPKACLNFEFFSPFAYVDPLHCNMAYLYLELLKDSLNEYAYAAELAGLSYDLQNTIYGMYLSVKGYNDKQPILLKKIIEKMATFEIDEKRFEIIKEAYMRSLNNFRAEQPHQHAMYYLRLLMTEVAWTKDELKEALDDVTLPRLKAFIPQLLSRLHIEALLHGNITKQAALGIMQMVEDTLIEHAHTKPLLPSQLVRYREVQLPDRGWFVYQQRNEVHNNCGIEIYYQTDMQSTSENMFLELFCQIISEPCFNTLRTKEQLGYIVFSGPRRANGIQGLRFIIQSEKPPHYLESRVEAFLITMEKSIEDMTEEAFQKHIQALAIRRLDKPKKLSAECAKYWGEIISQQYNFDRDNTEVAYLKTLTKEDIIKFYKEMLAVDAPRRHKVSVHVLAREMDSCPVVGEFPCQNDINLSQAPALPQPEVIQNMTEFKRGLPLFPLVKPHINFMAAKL

[18] = test system: HEK293; test: membrane integrity loss in HEK cells – cell-based, fluorescence, cytotoxicity control for IDE activator project, dose response (AID 588440); type: functional; conditions: Homo sapiens;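 note: cytotoxicity by LDH release measuring loss of membrane integrity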
[19] = biological target: T4, Insulin-degrading enzyme; test: recombinant IDE activation, cell-free – biochemical, fluorescence polarization, counter-screen for IDE activator project, dose response (AID 588681)
[20] = biological target: T5, Serine/threonine-protein phosphatase (Candida dubliniensis (strain CD36 / CBS 7987 / NCPF 3949 / NRRLY-17841) (Yeast), UniProt B9W6M3); test: blockers of CaCl2-induced CDRE-lacZ signaling – S. cerevisiae, luminescence, secondary, dose response (AID 2388); type: functional, cell-based;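 note: yeast reporter cells carrying a calcineurin-responsive lacZ construct stimulated with calcium chloride; luminescent beta-galactosidase reporter signal in whole cells rather than isolated phosphatase activity; potency for inhibition where a drop in reporter signal means calcineurin blockade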
T5 sequence (B9W6M3 whole entry): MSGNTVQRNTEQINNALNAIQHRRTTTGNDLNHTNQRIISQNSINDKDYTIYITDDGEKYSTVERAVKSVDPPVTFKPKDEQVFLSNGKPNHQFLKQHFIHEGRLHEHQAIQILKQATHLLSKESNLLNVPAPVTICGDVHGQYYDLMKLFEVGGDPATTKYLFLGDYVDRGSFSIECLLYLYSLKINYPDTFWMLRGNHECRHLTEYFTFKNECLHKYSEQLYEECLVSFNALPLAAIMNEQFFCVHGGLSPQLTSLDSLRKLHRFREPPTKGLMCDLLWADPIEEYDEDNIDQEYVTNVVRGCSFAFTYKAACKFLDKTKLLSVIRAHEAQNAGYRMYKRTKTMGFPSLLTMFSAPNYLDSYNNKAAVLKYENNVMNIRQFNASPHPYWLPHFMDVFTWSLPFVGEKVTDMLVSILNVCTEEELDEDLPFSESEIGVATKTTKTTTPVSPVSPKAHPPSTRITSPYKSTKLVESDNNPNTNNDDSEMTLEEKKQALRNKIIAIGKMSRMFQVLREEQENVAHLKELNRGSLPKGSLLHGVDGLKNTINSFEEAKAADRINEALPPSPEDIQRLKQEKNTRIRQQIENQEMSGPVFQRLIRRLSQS

[21] = NIH-3T3 fibroblast cytotoxicity, dose response, cytotoxicity control, cell-based, fluorescence, Alamar Blue, secondary assay (AID 2327); type: functional;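 note: NIH-3T3 mouse fibroblasts cultured with fluconazole at 8 µg/mL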
[22] = biological target: ATP-dependent molecular chaperone HSP82 (Candida albicans (strain WO-1) (Yeast), UniProt C4YTQ8); test: steroid-induced GRE reporter decrease in yeast – S. cerevisiae, luminescence, Hsp90 inhibitor project, dose response (AID 2400); type: functional, cell-based;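 note: beta-galactosidase luminescence from glucocorticoid response element reporter as proxy for Hsp90 function; inhibitor potency where signal loss means Hsp90 inhibition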
Chain of ATP-dependent molecular chaperone HSP82 (C4YTQ8 whole entry): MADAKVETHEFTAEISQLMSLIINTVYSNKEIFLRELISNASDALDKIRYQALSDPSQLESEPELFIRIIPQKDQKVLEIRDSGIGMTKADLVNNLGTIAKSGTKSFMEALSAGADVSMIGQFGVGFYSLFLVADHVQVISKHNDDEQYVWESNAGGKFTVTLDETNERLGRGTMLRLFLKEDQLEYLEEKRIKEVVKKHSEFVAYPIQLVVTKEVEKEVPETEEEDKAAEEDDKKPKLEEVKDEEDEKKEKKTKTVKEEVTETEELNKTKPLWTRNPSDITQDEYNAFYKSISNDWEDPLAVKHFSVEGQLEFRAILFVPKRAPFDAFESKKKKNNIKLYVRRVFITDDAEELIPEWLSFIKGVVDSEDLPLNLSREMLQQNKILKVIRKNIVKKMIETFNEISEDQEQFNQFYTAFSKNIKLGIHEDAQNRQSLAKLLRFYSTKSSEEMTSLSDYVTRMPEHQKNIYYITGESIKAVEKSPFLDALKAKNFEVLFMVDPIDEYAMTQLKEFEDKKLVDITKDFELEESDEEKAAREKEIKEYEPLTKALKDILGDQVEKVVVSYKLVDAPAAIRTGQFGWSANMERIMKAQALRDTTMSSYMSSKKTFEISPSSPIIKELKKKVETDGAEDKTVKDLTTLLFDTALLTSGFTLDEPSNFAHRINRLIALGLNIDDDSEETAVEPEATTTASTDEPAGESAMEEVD

[23] = fluconazole-exposed Candida albicans growth modulators – fluorescence, retest, confirmation (AID 2467); type: functional, cell-based
[24] = potency of ADAM10 substrate cleavage blockers – biochemical, QFRET, dose response (AID 743254);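 note: ADAM10 enzyme with the DM2 quenched FRET peptide as substrate; EDANS fluorescence gain as the protease cuts the substrate; inhibitor potency against ADAM10 proteolytic activity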
[25] = biological target: Disintegrin and metalloproteinase domain-containing protein 17 (Homo sapiens, UniProt P78536); test: inhibition of ADAM17 substrate cleavage – biochemical, quenched FRET substrate, counter-screen for ADAM10 exosite inhibitor project, dose response (AID 743253)
Chain of Disintegrin and metalloproteinase domain-containing protein 17 (P78536 whole entry, the tested form may be a part): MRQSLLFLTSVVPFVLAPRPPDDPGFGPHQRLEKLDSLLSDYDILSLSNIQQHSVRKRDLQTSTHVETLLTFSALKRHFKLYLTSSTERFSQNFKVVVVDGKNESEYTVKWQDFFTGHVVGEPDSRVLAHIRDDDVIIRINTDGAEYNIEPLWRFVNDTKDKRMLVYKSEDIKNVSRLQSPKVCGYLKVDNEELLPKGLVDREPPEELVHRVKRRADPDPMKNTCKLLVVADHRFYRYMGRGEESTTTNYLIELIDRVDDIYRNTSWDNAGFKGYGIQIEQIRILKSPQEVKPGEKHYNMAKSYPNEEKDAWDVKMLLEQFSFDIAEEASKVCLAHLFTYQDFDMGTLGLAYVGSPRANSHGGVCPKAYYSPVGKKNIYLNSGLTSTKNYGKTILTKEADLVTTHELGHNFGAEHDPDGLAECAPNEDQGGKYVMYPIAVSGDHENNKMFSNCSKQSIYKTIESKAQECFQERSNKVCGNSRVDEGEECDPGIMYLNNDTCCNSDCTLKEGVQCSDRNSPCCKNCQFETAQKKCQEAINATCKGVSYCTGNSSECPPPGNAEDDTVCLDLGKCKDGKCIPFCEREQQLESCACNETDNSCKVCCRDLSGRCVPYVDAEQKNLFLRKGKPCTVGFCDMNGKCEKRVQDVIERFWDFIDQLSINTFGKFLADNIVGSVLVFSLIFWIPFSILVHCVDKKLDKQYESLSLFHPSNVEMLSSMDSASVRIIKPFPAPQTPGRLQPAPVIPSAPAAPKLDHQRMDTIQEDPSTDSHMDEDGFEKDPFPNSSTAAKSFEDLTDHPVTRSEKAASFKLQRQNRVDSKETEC

[26] = biological target: T6, Microphthalmia-associated transcription factor (Homo sapiens, UniProt O75030); test: reducers of TRPM1 reporter luminescence, concentration series – cell-based, SK-MEL-5, cherry-picked, set 3, MITF inhibitor project, dose response (AID 493073); type: functional;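 note: SK-MEL-5 melanoma cells with luciferase driven by the MITF target TRPM1 promoter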
T6 sequence (O75030 whole entry): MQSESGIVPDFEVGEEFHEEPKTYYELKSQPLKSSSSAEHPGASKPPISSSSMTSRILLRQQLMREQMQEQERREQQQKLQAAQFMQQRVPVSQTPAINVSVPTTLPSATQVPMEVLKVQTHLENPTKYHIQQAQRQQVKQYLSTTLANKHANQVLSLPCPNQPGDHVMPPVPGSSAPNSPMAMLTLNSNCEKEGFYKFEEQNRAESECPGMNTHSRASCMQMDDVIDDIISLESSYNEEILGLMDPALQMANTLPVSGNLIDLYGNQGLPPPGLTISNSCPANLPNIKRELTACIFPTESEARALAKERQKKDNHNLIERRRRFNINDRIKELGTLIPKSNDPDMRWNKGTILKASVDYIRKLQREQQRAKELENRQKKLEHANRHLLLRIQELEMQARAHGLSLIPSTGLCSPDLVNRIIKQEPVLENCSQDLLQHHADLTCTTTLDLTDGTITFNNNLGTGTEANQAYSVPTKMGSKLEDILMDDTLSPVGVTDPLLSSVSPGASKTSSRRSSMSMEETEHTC

COc1ccc(CNc2nc(NCc3ccc(OC)cc3)c3[nH]cnc3n2)cc1
active: CC50 [1] > 40 µM

O=C(CSc1nc2scc(-c3ccccc3)c2c(=O)[nH]1)Nc1ccc(C(F)(F)F)cc1
active: IC50 [2] 1.65 µM | IC50 [3] 0.752 µM | IC50 [4] 10.3 µM

O=C(Nc1ccncc1)c1cc2ccccc2cc1O
active: CC50 [1] > 40 µM

O=C1C(F)=CC(COC(c2ccccc2)(c2ccccc2)c2ccccc2)OC1n1cc(F)c(=O)[nH]c1=O (centres undefined)
active: AC50 [5] 2.42 µM | AC50 [6] 2.6 µM | AC50 [7] 0.428 µM | IC50 [8] 7.69 µM | IC50 [9] 12.1 µM | CC50 [10] 6.83 µM | AC50 [11] 9.11 µM | IC50 [12] 8.13 µM

COC(=O)C1=C(C)N(Cc2ccccc2)C(NCc2cccc(Cl)c2)=N[C@H]1c1cccc(F)c1
inactive: EC50 [13] > 56 µM | IC50 [14] > 20 µM | EC50 [17] 25.2 µM | IC50 [18] 12.1 µM | EC50 [19] > 54.7 µM
active: AC50 [15] 7.03 µM | AC50 [16] 3.48 µM

Cc1cc(=O)oc2cc(Oc3ccc([N+](=O)[O-])cc3[N+](=O)[O-])ccc12
active: EC50 [23] 1.3 µM
inactive: EC50 [20] > 180 µM | EC50 [22] > 160 µM
inconclusive: EC50 [21] 35.9 µM

CC1(C)C=Cc2c(ccc3c2OC[C@H](c2ccc(O)cc2O)C3)O1
inactive: EC50 [13] > 54.7 µM | EC50 [17] > 54.7 µM | IC50 [24] 19.5 µM | IC50 [18] 22.1 µM | IC50 [25] > 69.5 µM | EC50 [19] > 54.7 µM
active: AC50 [6] 7.45 µM | AC50 [16] 3.16 µM

CCOC(=O)/C=C/CN(C(=O)OC(C)(C)C)S(=O)(=O)N1CC=CC1
inactive: EC50 [13] > 55.9 µM | EC50 [17] > 54.7 µM | IC50 [18] > 89.2 µM | EC50 [19] > 54.7 µM

Cc1oc(-c2ccc(Cl)cc2)nc1CN1CCC(C(=O)NCCCN2CCCC(C)C2)CC1 (centres undefined)
active: IC50 [9] 4.32 µM | CC50 [10] 22.5 µM | AC50 [26] 13.2 µM
